From ChEMBL document CHEMBL1143083, “Potent triazolyl-proline-based inhibitors of HCV NS3 protease” (Bioorg Med Chem Lett, 2008)

What was measured:
Hepatitis C virus = test: Antiviral activity against HCV in human Huh7 cells after 72 hrs by cell based luciferase reporter assay; format: functional, organism-based, Hepacivirus hominis; settings: Huh-7, 72 h
[1] = Inhibition of HCV NS3 protease; set-up: species or system Hepacivirus hominis

EC50 (Hepatitis C virus) [nM]	IC50 [1] [nM]	Compound
550	14	C=C[C@@H]1C[C@]1(NC(=O)[C@@H]1C[C@@H](Oc2cc(-c3ccccc3)nc3cc(OC)ccc23)CN1C(=O)[C@@H](NC(=O)OC1CCCC1)C(C)(C)C)C(=O)O
680	< 3	C=C[C@@H]1C[C@]1(NC(=O)[C@@H]1C[C@@H](n2cc(-c3ccc(Cl)cc3)nn2)CN1C(=O)[C@@H](NC(=O)OC1CCCC1)C(C)(C)C)C(=O)NS(=O)(=O)C1CC1
1220	< 3	C=C[C@@H]1C[C@]1(NC(=O)[C@@H]1C[C@@H](n2cc(-c3ccsc3)nn2)CN1C(=O)[C@@H](NC(=O)OC1CCCC1)C(C)(C)C)C(=O)NS(=O)(=O)C1CC1
	4300	C=C[C@@H]1C[C@]1(NC(=O)[C@@H]1C[C@@H](n2cc(C3CCCCC3)nn2)CN1C(=O)[C@@H](NC(=O)OC1CCCC1)C(C)(C)C)C(=O)O
140	< 3	C=C[C@@H]1C[C@]1(NC(=O)[C@@H]1C[C@@H](n2cc(-c3cc(Cl)cc(Cl)c3)nn2)CN1C(=O)[C@@H](NC(=O)OC1CCCC1)C(C)(C)C)C(=O)NS(=O)(=O)C1CC1
	59000	C=C[C@@H]1C[C@]1(NC(=O)[C@@H]1C[C@@H](n2ccnn2)CN1C(=O)[C@@H](NC(=O)OC1CCCC1)C(C)(C)C)C(=O)O
150	< 3	C=C[C@@H]1C[C@]1(NC(=O)[C@@H]1C[C@@H](n2cc(-c3cc(Br)cc(Br)c3)nn2)CN1C(=O)[C@@H](NC(=O)OC1CCCC1)C(C)(C)C)C(=O)NS(=O)(=O)C1CC1
190	< 3	C=C[C@@H]1C[C@]1(NC(=O)[C@@H]1C[C@@H](n2cc(-c3ccc4c(c3)OCO4)nn2)CN1C(=O)[C@@H](NC(=O)OC1CCCC1)C(C)(C)C)C(=O)NS(=O)(=O)C1CC1
230	< 3	C=C[C@@H]1C[C@]1(NC(=O)[C@@H]1C[C@@H](n2cc(-c3ccc4c(c3)CCO4)nn2)CN1C(=O)[C@@H](NC(=O)OC1CCCC1)C(C)(C)C)C(=O)NS(=O)(=O)C1CC1
220	< 3	C=C[C@@H]1C[C@]1(NC(=O)[C@@H]1C[C@@H](n2cc(-c3ccccc3Cl)nn2)CN1C(=O)[C@@H](NC(=O)OC1CCCC1)C(C)(C)C)C(=O)NS(=O)(=O)C1CC1
270	< 3	C=C[C@@H]1C[C@]1(NC(=O)[C@@H]1C[C@@H](n2cc(-c3ccc(N(C)C)cc3)nn2)CN1C(=O)[C@@H](NC(=O)OC1CCCC1)C(C)(C)C)C(=O)NS(=O)(=O)C1CC1
	860	C=C[C@@H]1C[C@]1(NC(=O)[C@@H]1C[C@@H](n2cc(-c3ccc(-c4ccccc4)cc3)nn2)CN1C(=O)[C@@H](NC(=O)OC1CCCC1)C(C)(C)C)C(=O)O
	360	C=C[C@@H]1C[C@]1(NC(=O)[C@@H]1C[C@@H](n2cc(-c3ccc(OC)cc3)nn2)CN1C(=O)[C@@H](NC(=O)OC1CCCC1)C(C)(C)C)C(=O)O
	890	C=C[C@@H]1C[C@]1(NC(=O)[C@@H]1C[C@@H](n2cc(-c3cccc4ccccc34)nn2)CN1C(=O)[C@@H](NC(=O)OC1CCCC1)C(C)(C)C)C(=O)O
	790	C=C[C@@H]1C[C@]1(NC(=O)[C@@H]1C[C@@H](n2cc(-c3ccc(Cl)cc3)nn2)CN1C(=O)[C@@H](NC(=O)OC1CCCC1)C(C)(C)C)C(=O)O
> 7300	< 3	C=C[C@@H]1C[C@]1(NC(=O)[C@@H]1C[C@@H](n2cc(-c3ccc(S(C)(=O)=O)cc3)nn2)CN1C(=O)[C@@H](NC(=O)OC1CCCC1)C(C)(C)C)C(=O)NS(=O)(=O)C1CC1
	130	C=C[C@@H]1C[C@]1(NC(=O)[C@@H]1C[C@@H](n2cc(-c3ccc4c(c3)CCO4)nn2)CN1C(=O)[C@@H](NC(=O)OC1CCCC1)C(C)(C)C)C(=O)O
170	< 3	C=C[C@@H]1C[C@]1(NC(=O)[C@@H]1C[C@@H](n2cc(-c3cccc(Cl)c3)nn2)CN1C(=O)[C@@H](NC(=O)OC1CCCC1)C(C)(C)C)C(=O)NS(=O)(=O)C1CC1
105		C=C[C@@H]1C[C@]1(NC(=O)[C@@H]1C[C@@H](n2cc(-c3cc(Br)cc(Br)c3)nn2)CN1C(=O)[C@@H](NC(=O)NC1CCCC1)C(C)(C)C)C(=O)NS(=O)(=O)C1CC1
	3700	C=C[C@@H]1C[C@]1(NC(=O)[C@@H]1C[C@@H](n2cc(-c3ccccn3)nn2)CN1C(=O)[C@@H](NC(=O)OC1CCCC1)C(C)(C)C)C(=O)O
	14000	C=C[C@@H]1C[C@]1(NC(=O)[C@@H]1C[C@@H](n2nncc2-c2ccccc2)CN1C(=O)[C@@H](NC(=O)OC1CCCC1)C(C)(C)C)C(=O)O
	700	C=C[C@@H]1C[C@]1(NC(=O)[C@@H]1C[C@@H](n2cc(-c3ccccc3)nn2)CN1C(=O)[C@@H](NC(=O)OC1CCCC1)C(C)(C)C)C(=O)O
77		C=C[C@@H]1C[C@]1(NC(=O)[C@@H]1C[C@@H](n2cc(-c3cc(Br)cc(Br)c3)nn2)CN1C(=O)[C@@H](NC(=O)OC1CCCC1)C(C)(C)C)C(=O)NS(=O)(=O)C1(C)CC1
210	< 3	C=C[C@@H]1C[C@]1(NC(=O)[C@@H]1C[C@@H](n2cc(-c3cccc(Br)c3)nn2)CN1C(=O)[C@@H](NC(=O)OC1CCCC1)C(C)(C)C)C(=O)NS(=O)(=O)C1CC1
430	2.7	C=C[C@@H]1C[C@]1(NC(=O)[C@@H]1C[C@@H](n2cc(-c3ccccc3)nn2)CN1C(=O)[C@@H](NC(=O)OC1CCCC1)C(C)(C)C)C(=O)NS(=O)(=O)C1CC1
